Experimental data reported in the supplement of paper PMC12137928.
Counter-ions that a name gives are not always drawn.

System: HCT116
Details: 72 h
Summary of the method: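 For IC50 and maximal efficacy, four-parameter Hill fits were used. Input values were CellTiter-Glo luminescence from HCT116 cells seeded at 250 per well in 1536-well plates, normalized to vehicle (0%) and positive control (-100%). Pattern correction followed normalization.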

Compound | IC50 cell viability (ICRF193 0 nM) | IC50 cell viability (ICRF193 200 nM)
O=C(NCC(O)CO)c1c(I)c(C(=O)NCC(O)CO)c(I)c(N(CCO)C(=O)CO)c1I (stereo unspecified) [Ioversol] | > 45.8 µM | > 45.8 µM
CNC(=O)c1c(I)c(C(=O)NCC(=O)Nc2c(I)c(C(=O)O)c(I)c(C(=O)NCCO)c2I)c(I)c(N(C)C(C)=O)c1I [Ioxaglic Acid] | > 45.8 µM | > 45.8 µM
CC(=O)N(CC(O)CO)c1c(I)c(C(=O)NCCO)c(I)c(C(=O)NCC(O)CO)c1I (stereo unspecified) [Ioxilan] | > 45.8 µM | > 45.8 µM
CC(C)C[C@H]1[C@@H](c2ccccc2)OC(=O)N1CCCN1CCCCCC1 [Ipenoxazone hydrochloride] | > 45.8 µM | > 45.8 µM
CN(C)/C=N/c1c(I)cc(I)c(CCC(=O)O)c1I [Ipodate sodium] | > 45.8 µM | > 45.8 µM
OC[C@H]1O[C@@H](c2ccc(F)c(Cc3cc4ccccc4s3)c2)[C@H](O)[C@@H](O)[C@@H]1O [Ipragliflozin] | > 45.8 µM | > 45.8 µM
CC(C)[N+]1(C)[C@@H]2CC[C@H]1C[C@@H](OC(=O)C(CO)c1ccccc1)C2 (stereo partly specified) [Ipratropium bromide] | > 45.8 µM | > 45.8 µM
CC(C)Oc1ccc2c(=O)c(-c3ccccc3)coc2c1 [Ipriflavone] | > 45.8 µM | > 45.8 µM
CCCCC1=NC2(CCCC2)C(=O)N1Cc1ccc(-c2ccccc2-c2nnn[nH]2)cc1 [Irbesartan] | > 45.8 µM | > 45.8 µM
Nc1nc(N)nc(-c2cc(Cl)ccc2Cl)n1 [Irsogladine maleate] | > 45.8 µM | > 45.8 µM
NC(=O)NC1N=C([O][Al])NC1=O.O.O (stereo unspecified) [Isalon] | > 45.8 µM | > 45.8 µM
CN[C@@H]1[C@@H](O)[C@@H](O[C@@H]2[C@@H](O)[C@H](O[C@H]3O[C@H](CN)[C@@H](O)[C@H](O)[C@H]3O)[C@@H](N)C[C@H]2NC(=O)[C@@H](O)CN)OC[C@]1(C)O [Isepamicin] | > 45.8 µM | > 45.8 µM
CC(CC(C#N)(c1ccccc1)C(C)C)N(C)C (stereo unspecified) [Isoaminile] | > 45.8 µM | > 45.8 µM
CC(C)COC(=O)c1ccc(N)cc1 [Isocaine] | > 45.8 µM | > 45.8 µM
Cc1cc(C(=O)NNCc2ccccc2)no1 [Isocarboxazid] | > 45.8 µM | > 45.8 µM
C/C=C\c1ccc(O)c(OC)c1 [Isoeugenol] | > 45.8 µM | > 45.8 µM
CC(=O)OCC(=O)[C@@]1(O)CC[C@H]2[C@@H]3CCC4=CC(=O)C=C[C@]4(C)[C@@]3(F)[C@@H](O)C[C@@]21C [Isoflupredone acetate] | > 45.8 µM | > 45.8 µM
FC(F)OC(Cl)C(F)(F)F (stereo unspecified) [Isoflurane] | > 45.8 µM | > 45.8 µM
CC(=NNC(=O)c1ccncc1)C(=O)O [Isoniazid pyruvate] | > 45.8 µM | > 45.8 µM
O=C(NNCS(=O)(=O)O)c1ccncc1 [Isoniazid sodium methanesulfonate] | > 45.8 µM | > 45.8 µM
NNC(=O)c1ccncc1 [Isoniazid] | > 45.8 µM | > 45.8 µM

Compound | IC50 cell viability (ICRF193 0 nM) | IC50 cell viability (ICRF193 200 nM)
CC(C)NCC(O)c1ccc(O)c(O)c1 (stereo unspecified) [Isoprenaline hydrochloride] | > 45.8 µM | > 45.8 µM
CC(C)[N+](C)(CCC(C(N)=O)(c1ccccc1)c1ccccc1)C(C)C [Isopropamide] | > 45.8 µM | > 45.8 µM
CCCCCCCCCCCCCC(=O)OC(C)C [Isopropyl tetradecanoic acid] | > 45.8 µM | > 45.8 µM
O=[N+]([O-])O[C@H]1CO[C@H]2[C@@H]1OC[C@H]2O[N+](=O)[O-] [Isosorbide dinitrate] | > 45.8 µM | > 45.8 µM
O=[N+]([O-])O[C@@H]1CO[C@H]2[C@@H]1OC[C@@H]2O [Isosorbide mononitrate] | > 45.8 µM | > 45.8 µM
O[C@@H]1CO[C@H]2[C@@H]1OC[C@@H]2O [Isosorbide] | > 45.8 µM | > 45.8 µM
CC(CN1c2ccccc2Sc2cccnc21)N(C)C (stereo unspecified) [Isothipendyl hydrochloride] | > 45.8 µM | > 45.8 µM
CC1=C(/C=C/C(C)=C/C=C/C(C)=C\C(=O)O)C(C)(C)CCC1 [Isotretinoin] | > 45.8 µM | > 45.8 µM
CC(COc1ccccc1)NC(C)C(O)c1ccc(O)cc1 (stereo unspecified) [Isoxsuprine hydrochloride] | > 45.8 µM | > 45.8 µM
COC(=O)C1=C(C)NC(C)=C(C(=O)OC(C)C)C1c1cccc2nonc12 (stereo unspecified) [Isradipine] | > 45.8 µM | > 45.8 µM
CCn1c(=O)c2c(nc(/C=C/c3ccc(OC)c(OC)c3)n2C)n(CC)c1=O [Istradefylline] | > 45.8 µM | > 45.8 µM
CN1[C@@H]2CC[C@H]1C[C@@H](NC(=O)n1c(=O)[nH]c3ccccc31)C2 [Itasetron] | > 45.8 µM | > 45.8 µM
COc1ccc(C(=O)NCc2ccc(OCCN(C)C)cc2)cc1OC [Itopride hydrochloride] | > 45.8 µM | > 45.8 µM
CCC(C)n1ncn(-c2ccc(N3CCN(c4ccc(OCC5COC(Cn6cncn6)(c6ccc(Cl)cc6Cl)O5)cc4)CC3)cc2)c1=O (stereo unspecified) [Itraconazole] | > 45.8 µM | > 45.8 µM
COc1cc2c(cc1OC)CC(=O)N(CCCN(C)C[C@H]1Cc3cc(OC)c(OC)cc31)CC2 [Ivabradine hydrochloride] | > 45.8 µM | > 45.8 µM
Cc1oc(-c2ccccc2)nc1CCOc1ccc(CC2C(=O)NOC2=O)cc1 (stereo unspecified) [JTT-501] | > 45.8 µM | > 45.8 µM
C=C(C)[C@H]1CN[C@H](C(=O)O)[C@H]1CC(=O)O [Kainic acid] | > 45.8 µM | > 45.8 µM
NC[C@H]1O[C@H](O[C@H]2[C@H](O)[C@@H](O[C@H]3O[C@H](CO)[C@@H](O)[C@H](N)[C@H]3O)[C@H](N)C[C@@H]2N)[C@H](O)[C@@H](O)[C@@H]1O [Kanamycin (sulfate)] | > 45.8 µM | > 45.8 µM
CC(=O)CCC1C(=O)N(c2ccccc2)N(c2ccccc2)C1=O [Kebuzone] | > 45.8 µM | > 45.8 µM
O=C(c1ccc(F)cc1)C1CCN(CCn2c(=O)[nH]c3ccccc3c2=O)CC1 [Ketanserin] | > 45.8 µM | > 45.8 µM
O=C(c1ccccc1)c1ccc2n1CCC2C(=O)O (stereo unspecified) [Ketorolac] | > 45.8 µM | > 45.8 µM

Compound | IC50 cell viability (ICRF193 0 nM) | IC50 cell viability (ICRF193 200 nM)
CN1CCC(=C2c3ccccc3CC(=O)c3sccc32)CC1 [Ketotifen] | > 45.8 µM | > 45.8 µM
O=c1cc(CO)occ1O [Kojic acid] | > 45.8 µM | > 45.8 µM
Cl.NCCCC[C@H](N)C(=O)O [L-(+)-Lysine monohydrochloride] | > 45.8 µM | > 45.8 µM
N=C(N)NCCC[C@H](N)C(=O)O [L-Arginine] | > 45.8 µM | > 45.8 µM
O=C1O[C@H]([C@@H](O)CO)C(O)=C1O [L-Ascorbic acid] | > 45.8 µM | > 45.8 µM
CCCCCCCCCCCCCCCC(=O)OC[C@H](O)[C@H]1OC(=O)C(O)=C1O [L-Ascorbyl 6-palmitate] | > 45.8 µM | > 45.8 µM
CCOC(=O)[C@@H](N)CS [L-Cysteine ethyl ester hydrochloride] | > 45.8 µM | > 45.8 µM
COC(=O)[C@@H](N)CS [L-Cysteine methyl ester hydrochloride] | > 45.8 µM | > 45.8 µM
N[C@@H](CSSC[C@H](N)C(=O)O)C(=O)O [L-Cystine] | > 45.8 µM | > 45.8 µM
CSCC[C@H](N)C(=O)O [L-Methionine] | > 45.8 µM | > 45.8 µM
CC(C)(S)[C@H](N)C(=O)O [L-Penicillamine] | > 45.8 µM | > 45.8 µM
O=C(O)[C@@H]1CCCN1 [L-Proline] | > 45.8 µM | > 45.8 µM
C[C@@H](O)[C@H](N)C(=O)O [L-Threonine] | > 45.8 µM | > 45.8 µM
N[C@@H](Cc1cc(I)c(Oc2cc(I)c(O)c(I)c2)c(I)c1)C(=O)O [L-Thyroxine] | > 45.8 µM | > 45.8 µM
CC(C)[C@H](N)C(=O)O [L-Valine] | > 45.8 µM | > 45.8 µM
Nc1nc(=O)c2c([nH]1)NCC(CNc1ccc(C(=O)N[C@@H](CCC(=O)O)C(=O)O)cc1)N2C=O (stereo partly specified) [LEUCOVORIN CALCIUM] | > 45.8 µM | > 45.8 µM
C[C@@H]1NC(=O)[C@@H]2CCCN2C(=O)[C@H](CC(N)=O)NC(=O)[C@@H]2CSSC[C@H](N)C(=O)N[C@H]3CSSC[C@H](NC1=O)C(=O)N[C@@H]([C@@H](C)O)C(=O)NCC(=O)N[C@H](C(=O)N[C@@H](Cc1ccc(O)cc1)C(=O)O)CSSC[C@H](NC(=O)[C@H](Cc1ccc(O)cc1)NC(=O)[C@H](CCC(=O)O)NC3=O)C(=O)N2 [LINACLOTIDE (1 mg/ml)] | > 45.8 µM | > 45.8 µM
Cl[C@H]1[C@H](Cl)[C@@H](Cl)[C@@H](Cl)[C@H](Cl)[C@H]1Cl [LINDANE] | > 45.8 µM | > 45.8 µM
O.O.O.O.O=C([O-])CC(O)(CC(=O)[O-])C(=O)[O-].[Li+].[Li+].[Li+] [LITHIUM CITRATE] | > 45.8 µM | > 45.8 µM
CN1[C@@H](CC(=O)c2ccccc2)CCC[C@H]1C[C@H](O)c1ccccc1 [LOBELINE HYDROCHLORIDE] | > 45.8 µM | > 45.8 µM
CC(CCc1ccccc1)NCC(O)c1ccc(O)c(C(N)=O)c1 (stereo unspecified) [Labetalol HCl] | > 45.8 µM | > 45.8 µM
